According to patent publication US20240150286A1, “PEROXISOME PROLIFERATOR-ACTIVATED RECEPTOR GAMMA (PPARy) LIGANDS AND METHODS OF USE AS TREATMENTS FOR INSULIN RESISTANCE, OBESITY, FATTY LIVER DISEASE, AND TYPE 2 DIABETES” (The Board of Regents of the University of Oklahoma, priority 2022, published 2024):

Assays:
[1] = tested on: diet-induced obesity (DIO) mice; test: Body weight, body composition and indirect calorimetry in DIO mice; assay type: in vivo, mouse
Method: (§1) C57BL/6J male mice were obtained from Jackson laboratory (Bar Harbor, ME) and maintained on a 12 h light (6:00 AM to 6:00 PM)—12 h dark (6:00 PM to 6:00 AM) cycle at an ambient temperature of 22±1° C. All animals had access to diet and water ad libitum. All procedures involving animals were approved by the Institutional Animal Care and Use Committee of the University of Oklahoma Health Science Center. All experiments were performed with age-matched male mice. The mice were fed a high-fat diet (HFD) (60% kcal fat, Bio-Serv, NJ, USA) starting from the age of 6 weeks until study end. […] Food intake was determined manually by measuring the amount of input food subtracting the amount of the food remaining in the food hopper and the crumbs on the bedding of the cage each day for three days during the 4th week of the treatment. Packed cell volume (PCV) was measured with blood drawn from tail on a LW Scientific E8 centrifuge (LW Scientific, Lawrenceville, Georgia, USA) microhematocrit centrifuge at the end of study. For all other measurements, the blood was drawn at the time of euthanization.
Body lean and fat composition was determined by EchoMRI test.
The mice were individually housed in chambers of a Promethion Core Monitoring system (Sable Systems, Las Vegas, NV, USA). After a 1-day acclimation period, their oxygen consumption and carbon dioxide production were measured for the next three consecutive days. The respiratory exchange ratio and energy expenditure were calculated using standard equations

human PPARγ2 = biological target: T1, human PPARγ2 (Homo sapiens, UniProt P37231); test: PPARγ transactivation reporter assay (3×PPRE-luc) in HEK-293 cells; assay type: cell-based
T1 construct: host or cells: HEK-293
T1 sequence (P37231 1-505): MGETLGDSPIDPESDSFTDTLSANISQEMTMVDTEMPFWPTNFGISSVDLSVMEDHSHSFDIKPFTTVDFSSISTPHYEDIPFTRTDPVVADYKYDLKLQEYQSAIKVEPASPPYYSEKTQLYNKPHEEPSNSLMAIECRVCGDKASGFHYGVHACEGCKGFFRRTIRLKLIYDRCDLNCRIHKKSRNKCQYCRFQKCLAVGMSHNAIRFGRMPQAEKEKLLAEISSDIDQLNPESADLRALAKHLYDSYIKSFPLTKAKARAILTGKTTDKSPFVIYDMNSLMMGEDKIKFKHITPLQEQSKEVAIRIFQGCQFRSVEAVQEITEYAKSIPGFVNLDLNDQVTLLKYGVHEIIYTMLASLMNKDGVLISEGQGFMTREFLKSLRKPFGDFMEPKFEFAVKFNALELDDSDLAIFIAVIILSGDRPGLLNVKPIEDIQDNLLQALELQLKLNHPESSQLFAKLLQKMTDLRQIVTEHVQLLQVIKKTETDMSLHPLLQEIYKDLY
Method: HEK-293 cells were seeded overnight, co-transfected with plasmids expressing human PPARγ2 and 3×PPRE-luc (both from Addgene) followed by incubation for 16 h, and then re-seeded in a 384-well plate and incubated for 24 h. Compounds were added and then incubated another 24 h. Luciferase activity was analyzed in each well using Bright-Glo Luciferase kit (Promega).

[2] = tested on: primary preadipocytes isolated from iWAT and eWAT; test: Browning gene expression in differentiated primary preadipocytes; assay type: cell-based, mouse; conditions: differentiated with WO95E vs DMSO
Method: 3T3-L1 preadipocytes were differentiated. In brief, cells at around 60%-70% confluence were induced for differentiation with DMEM containing 10% FBS, 1 μg/ml insulin, 1 μM dexamethasone, and 0.5 mM IBMX for 48 h in the presence or absence of compounds and were then exposed in maintenance medium (1 μg/mL insulin in 10% FBS/DMEM) containing compounds. The medium was renewed every 2 days for total 8 days of differentiation when the cells became differentiated and lipid droplets were apparent. For primary preadipocyte differentiation, isolation of primary preadipocytes was performed. Briefly, fat depots were digested in PBS containing collagenase D (1.5 U/ml) at 37° C. for 40-45 min. The primary cells were filtered through 70 μm cell strainer and centrifuge at 700 g to collect stromal vascular fraction (SVF). The SVF cell pellets were plated on collagen coated plates. […]
Total RNA (2 μg) was isolated from tissues or cells using TRIzol reagents (Life Technologies) and reverse transcribed using oligo d(T) primers (New England Biosystems) and SuperScript IV reverse transcription kit (Applied Biosystems). qPCR was performed in a CFX96 Touch Real-Time PCR detection system using SYBR Green mix (Applied Biosystems). […] Relative mRNA expression was determined by the ΔΔCt method normalized to TBP mRNA. […]

[3] = tested on: diet-induced obesity (DIO) mice; test: Glucose tolerance, insulin tolerance and serum biochemistry in DIO mice; assay type: in vivo, mouse
Method: as §1
Intraperitoneal glucose tolerance test (ipGTT) was performed after 6-h fasting. Blood glucose levels were measured at 0, 15, 30, 60, and 120 min glucometer (OneTouch Ultra 2 Meter) after an intraperitoneal administration of glucose at dose of 1.5 g/kg body weight. Intraperitoneal insulin tolerance test (ipITT) was performed after 6 h fasting. Blood glucose levels were measured at 0, 15, 30, 60, and 120 min after an intraperitoneal administration of human insulin at dose of 1.2 IU/kg body weight.
Serum insulin (ALPCO, NH, USA), serum cholesterol TG (Cayman Chem., MI, USA) and FFAs (Bioassay system, CA, USA) were determined by ELISA.

Cc1c(C)n(Cc2ccc(-c3ccccc3C(=O)O)cc2)c2ccc(C(=O)NCc3cccc(O)c3)cc12 [WO95E, 4′-((5-((3-hydroxybenzyl)carbamoyl)-2,3-dimethyl-1H-indol-1-yl)methyl)-[1,1′-biphenyl]-2-carboxylic acid] was tested, and the body weight ([1]; DIO mice on HFD, 15 mg/kg i.p. daily 4 weeks) was “reduced body weight”, the “fat mass (EchoMRI)” value ([1]; DIO mice, 15 mg/kg i.p. daily) was “significant decrease” and the “lean mass (EchoMRI)” value ([1]; DIO mice, 15 mg/kg i.p. daily) was “no noticeable change”. For the same compound, the daily food intake ([1]; DIO mice, 4th week of treatment, vs vehicle) was “same amount of daily food intake”, the “average oxygen consumption (VO2)” value ([1]; DIO mice, indirect calorimetry after 4-week treatment) was “higher” and the mean energy expenditure ([1]; DIO mice, indirect calorimetry, vs vehicle) was “significantly heightened”. The “average carbon dioxide production (VCO2)” value ([1]; DIO mice, indirect calorimetry, p value 0.08 for daytime) was “increased”, the “respiratory exchange ratio (RER)” value ([1]; DIO mice, vs vehicle, data not shown) was “similar” and the “overall activity (distance)” value ([1]; DIO mice, difference statistically insignificant) was “upward trend”. For the same compound, the “PPARγ transactivation reporter activation (in words)” value (human PPARγ2; HEK293, PPARγ2 + 3×PPRE-luc) was “increased the reporter activity only weakly”, the “3×PPRE-luc reporter activity as % of potency of Rosi” value (human PPARγ2; HEK293, PPARγ2 + 3×PPRE-luc, relative to Rosi) was about 15% and the “3×PPRE-luc reporter activity as % of potency of UHC1” value (human PPARγ2; HEK293, PPARγ2 + 3×PPRE-luc, relative to UHC1) was about 33%. For the same compound, the “3×PPRE reporter activation with GW9662 co-treatment” value (human PPARγ2; compound 10 μM, GW9662 5 μM, HEK293) was “retained its moderate ability to activate the reporter”, the “expression levels of Prdm16, UCP1, PCG1α, Ppara in iWAT adipocytes” value [2] was “significantly increased” and the “serum level of free fatty acid” value ([3]; 15 mg/kg i.p. daily 4 weeks) was “decreased”. For the same compound, the total serum cholesterol ([3]; 15 mg/kg i.p. daily 4 weeks) was “downward trend but did not reach statistically significant”, the triglyceride level ([3]; 15 mg/kg i.p. daily 4 weeks, data not shown) was “unchanged” and the “glucose tolerance (ipGTT, peak glucose and AUC)” value ([3]; 15 mg/kg i.p. daily, 2 weeks, vs vehicle) was “significantly improved”. For the same compound, the “insulin sensitivity (ipITT)” value ([3]; 15 mg/kg i.p. daily, 2.5 weeks, vs vehicle) was “enhanced” and the “fasting and refeeding plasma levels of insulin” value ([3]; 15 mg/kg i.p. daily, vs vehicle) was “markedly decreased”.
